# Reference: patent US20260250320A1, “LIPIDATED PEPTIDE INHIBITORS OF INTERLEUKIN-23 RECEPTOR” (Janssen Pharmaceutica NV, priority 2023, published 2026)
# *1 amine or outer side, *2 acyl side, *3 side chain or, on linkers, in order; H or OH if unused. Where a SMILES comes first, the peptide text is derived from it. Bridges are numbered along the chain shown (N, C = ends). Side-chain parts run from the residue outwards. [ ]: non-standard residue; d: D form. The star is where a group is joined. Me3N+(CH2)2O(CH2)2O(CH2)2CO = C[N+](C)(C)CCOCCOCCC(=O)*; PEG12 = NCCOCCOCCOCCOCCOCCOCCOCCOCCOCCOCCOCCOCCC(=O)O; CH2CH2OCH2CH2OCH2CH2NMe3+ = C[N+](C)(C)CCOCCOCC*; Trp(7-Me) = Cc1cccc2c(C[C@H](N)C(=O)O)c[nH]c12; C20 diacid = O=C(O)CCCCCCCCCCCCCCCCCCC(=O)*; C18 diacid = O=C(O)CCCCCCCCCCCCCCCCC(=O)*; γGlu = O=C(O)[C@H](CCC(=O)[*:2])N[*:1]; 2Nal = N[C@@H](Cc1ccc2ccccc2c1)C(=O)O; AEF = NCCOc1ccc(C[C@H](N)C(=O)O)cc1; X2 = C[N+](C)(C)C[C@@H](CC(=O)O)N*; 3Pal = N[C@@H](Cc1cccnc1)C(=O)O; Lys(Me) = CNCCCC[C@H](N)C(=O)O; Pen = CC(C)(S)[C@H](N)C(=O)O; Suc = O=C(CCC(=O)[*:2])[*:1]; Thp = NC1(C(=O)O)CCOCC1; X1 = C[N+](C)(C)CCCCC*; AEEA = NCCOCCOCC(=O)O; Sar = CNCC(=O)O
# Molecular target: T1, IL-23R (Homo sapiens, UniProt Q5VWK5)
# T1 construct: HEK293 cells containing IL-23R, IL-12Rβ1 and a firefly luciferase reporter gene driven by a STAT-inducible promoter (Promega); host or cells: HEK293
# T1 sequence (Q5VWK5 24-629): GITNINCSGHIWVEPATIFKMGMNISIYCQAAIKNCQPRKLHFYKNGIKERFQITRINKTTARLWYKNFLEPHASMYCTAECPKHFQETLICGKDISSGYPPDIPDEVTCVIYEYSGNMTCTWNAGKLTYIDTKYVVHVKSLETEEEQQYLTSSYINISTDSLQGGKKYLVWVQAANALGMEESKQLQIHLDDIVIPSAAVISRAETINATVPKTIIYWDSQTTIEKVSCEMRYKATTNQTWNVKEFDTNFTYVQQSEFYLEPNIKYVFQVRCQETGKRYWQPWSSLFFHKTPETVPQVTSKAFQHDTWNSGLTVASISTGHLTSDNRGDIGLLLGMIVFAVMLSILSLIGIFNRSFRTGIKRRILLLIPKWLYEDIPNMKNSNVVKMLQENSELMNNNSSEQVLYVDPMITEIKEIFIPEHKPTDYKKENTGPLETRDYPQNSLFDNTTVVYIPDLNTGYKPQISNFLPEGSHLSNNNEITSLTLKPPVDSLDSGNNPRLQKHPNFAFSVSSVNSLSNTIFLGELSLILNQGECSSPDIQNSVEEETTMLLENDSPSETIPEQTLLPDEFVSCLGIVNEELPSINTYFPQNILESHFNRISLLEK
# Test: IL23R Reporter Assay
# Type: cell-based
# Settings: HEK293 cells containing IL-23R, IL-12Rβ1 and STAT-inducible firefly luciferase reporter; 10 ng/mL IL-23 (EC90); 5 h
# Experimental: Compounds were serially diluted in 100% (v/v) DMSO) and plated using an Echo acoustic dispenser (Labcyte) into 1536-well non-treated black assay plates (Corning #9146). 3 μL of HEK293 cells containing IL-23R, IL-12Rβ1 and a firefly luciferase reporter gene driven by a STAT-inducible promoter (Promega) were added to the plates (4000 cells/well), followed by 3 μL of 10 ng/mL IL-23 (equivalent to EC90 concentration). After 5 h at 37° C., 5% CO2, 95% relative humidity, cells were placed at 20° C. and treated with BioGlo reagent (Promega) according to the Manufacturer's instructions. Luminescence was measured on a Pherastar FSX (BMG LabTech). Data were normalized to IL-23 treatment (0% inhibition) and 30 μM of control inhibitor (100% inhibition), and IC50 values were determined using a 4-parameter Hill equation.
row,SMILES,IC50 [µM]
1,"CC(=O)N(C)CCCC[C@@H]1NC(=O)[C@H](Cc2c[nH]c3c(C)cccc23)NC(=O)[C@H]([C@@H](C)O)NC(=O)[C@H](CC(=O)N(C)C)NC(=O)[C@@H](NC(=O)COCCOCCNC(=O)COCCOCCNC(=O)CC[C@H](NC(=O)CCCCCCCCCCCCCCCCC(=O)O)C(=O)O)C(C)(C)SSC(C)(C)[C@@H](C(=O)N[C@@H](Cc2ccc(OCCOCCOCC[N+](C)(C)C)cc2)C(=O)N[C@@H](Cc2ccc3ccccc3c2)C(=O)NC2(C(=O)N[C@@H](CCCCN(C)C(C)=O)C(=O)N[C@@H](CC(N)=O)C(=O)N[C@@H](Cc3cccnc3)C(=O)N(C)CC(=O)N(C)C)CCOCC2)NC1=O [compound 155, HOC18gEPEG2PEG2CO-Pen(3)-N(N(Me)2)-T-7MeW-K(NMeAc)-Pen(3)-APEG3F-2Nal-THP-K(NMeAc)-N-3Pya-Sar-CON(Me)2] ({C18 diacid-γGlu-AEEA-AEEA}-[Pen]D(NMe2)T[Trp(7-Me)][Lys(Me)](Ac)[Pen]Y(CH2CH2OCH2CH2OCH2CH2NMe3+)[2Nal][Thp][Lys(Me)](Ac)N[3Pal][Sar]-NMe2; disulfide 1-6)",< 0.05
2,"CC(=O)N(C)CCCC[C@@H]1NC(=O)[C@H](Cc2c[nH]c3c(C)cccc23)NC(=O)[C@H]([C@@H](C)O)NC(=O)[C@H](CC(=O)N(C)C)NC(=O)[C@@H](NC(=O)CCOCCOCCOCCOCCOCCOCCOCCOCCOCCOCCOCCOCCNC(=O)CC[C@H](NC(=O)CCCCCCCCCCCCCCCCCCC(=O)O)C(=O)O)C(C)(C)SSC(C)(C)[C@@H](C(=O)N[C@@H](Cc2ccc(OCCCCC[N+](C)(C)C)cc2)C(=O)N[C@@H](Cc2ccc3ccccc3c2)C(=O)NC2(C(=O)N[C@@H](CCCCN(C)C(C)=O)C(=O)N[C@@H](CC(N)=O)C(=O)N[C@@H](Cc3cccnc3)C(=O)N(C)CC(=O)N(C)C)CCOCC2)NC1=O [compound 94, HOC20gEPEG12CO-Pen(3)-N(N(Me)2)-T-7MeW-K(NMeAc)-Pen(3)-TMAPF-2Nal-THP-K(NMeAc)-N-3Pya-Sar-CON(Me)2] ({C20 diacid-γGlu-PEG12}-[Pen]D(NMe2)T[Trp(7-Me)][Lys(Me)](Ac)[Pen]Y(X1)[2Nal][Thp][Lys(Me)](Ac)N[3Pal][Sar]-NMe2; disulfide 1-6)",< 0.05
3,"CC(=O)NCCCC[C@@H]1NC(=O)[C@H](Cc2c[nH]c3c(C)cccc23)NC(=O)[C@H]([C@@H](C)O)NC(=O)[C@H](CCCCNC(=O)CCC(=O)N[C@H](CC(=O)O)C[N+](C)(C)C)NC(=O)[C@@H](NC(=O)[C@@H](CCCNC(=N)N)NC(=O)COCCOCCNC(=O)COCCOCCNC(=O)CC[C@H](NC(=O)CCCCCCCCCCCCCCCCC(=O)O)C(=O)O)C(C)(C)SSC(C)(C)[C@@H](C(=O)N[C@@H](Cc2ccc(OCCN)cc2)C(=O)N[C@@H](Cc2ccc3ccccc3c2)C(=O)NC2(C(=O)N[C@@H](CCC(=O)O)C(=O)N[C@@H](CC(N)=O)C(=O)N[C@@H](Cc3cccnc3)C(=O)N(C)CC(N)=O)CCOCC2)NC1=O [compound 47, HOC18gEPEG2PEG2CO-r-Pen(3)-K(d)-T-7MeW-K(Ac)-Pen(3)-AEF-2Nal-THP-E-N-3Pya-Sar-CONH2] ({C18 diacid-γGlu-AEEA-AEEA}-[dR][Pen]K([Suc-X2])T[Trp(7-Me)]K(Ac)[Pen][AEF][2Nal][Thp]EN[3Pal][Sar]-NH2; disulfide 2-7)",< 0.05
4,"CC(=O)NCCCC[C@@H]1NC(=O)[C@H](Cc2c[nH]c3c(C)cccc23)NC(=O)[C@H]([C@@H](C)O)NC(=O)[C@H](CC(N)=O)NC(=O)[C@@H](NC(C)=O)C(C)(C)SSC(C)(C)[C@@H](C(=O)N[C@@H](Cc2ccc(OCCN)cc2)C(=O)N[C@@H](Cc2ccc3ccccc3c2)C(=O)NC2(C(=O)N[C@@H](CCC(=O)O)C(=O)N[C@@H](CC(N)=O)C(=O)N[C@@H](Cc3cccnc3)C(=O)N(C)CC(=O)NCCOCCOCCOCCOCCOCCOCCOCCOCCOCCOCCOCCOCCNC(=O)CC[C@H](NC(=O)CCCCCCCCCCCCCCCCC(=O)O)C(=O)O)CCOCC2)NC1=O [compound 135, MeCO-Pen(3)-N-T-7MeW-K(Ac)-Pen(3)-AEF-2Nal-THP-E-N-3Pya-Sar-CO(PEG12gEC18OH)]",0.05 to 0.5
5,"CCCCCCCCCCCCCC(=O)N(C)CC(=O)N[C@@H](CO)C(=O)N(C)CC(=O)N[C@@H](CO)C(=O)N(C)CC(=O)N[C@@H](CO)C(=O)N(C)CC(=O)NCCCC[C@H](NC(=O)CN(C)C(=O)[C@H](Cc1cccnc1)NC(=O)[C@H](CC(N)=O)NC(=O)[C@H](CCC(=O)O)NC(=O)C1(NC(=O)[C@H](Cc2ccc3ccccc3c2)NC(=O)[C@H](Cc2ccc(OCCN)cc2)NC(=O)C2NC(=O)[C@H](CCCCNC(C)=O)NC(=O)[C@H](Cc3c[nH]c4c(C)cccc34)NC(=O)[C@H]([C@@H](C)O)NC(=O)[C@H](CC(N)=O)NC(=O)[C@@H](NC(C)=O)C(C)(C)SSC2(C)C)CCOCC1)C(N)=O (stereo partly drawn) [compound 1, MeCO-Pen(3)-N-T-7MeW-K(Ac)-Pen(3)-AEF-2Nal-THP-E-N-3Pya-Sar-K(Sar-S-Sar-S-Sar-S-Sar-C14)-CONH2]",< 0.05
6,"CC(=O)NCCCC[C@@H]1NC(=O)[C@H](Cc2c[nH]c3c(C)cccc23)NC(=O)[C@H]([C@@H](C)O)NC(=O)[C@H](CC(N)=O)NC(=O)[C@@H](NC(=O)[C@@H](CCCNC(=N)N)NC(C)=O)C(C)(C)SSC(C)(C)[C@@H](C(=O)N[C@@H](Cc2ccc(OCCCCC[N+](C)(C)C)cc2)C(=O)N[C@@H](Cc2ccc3ccccc3c2)C(=O)NC2(C(=O)N[C@@H](CCC(=O)O)C(=O)N[C@@H](CC(N)=O)C(=O)N[C@@H](Cc3cccnc3)C(=O)N(C)CC(=O)N[C@@H](CCCCNC(=O)COCCOCCNC(=O)COCCOCCNC(=O)CC[C@H](NC(=O)CCCCCCCCCCCCCCCCC(=O)O)C(=O)O)C(N)=O)CCOCC2)NC1=O [compound 69, MeCO-r-Pen(3)-N-T-7MeW-K(Ac)-Pen(3)-TMAPF-2Nal-THP-E-N-3Pya-Sar-K(PEG2PEG2C18OH)-CONH2] (Ac-[dR][Pen]NT[Trp(7-Me)]K(Ac)[Pen]Y(X1)[2Nal][Thp]EN[3Pal][Sar]K([AEEA-AEEA-γGlu-C18 diacid])-NH2; disulfide 2-7)",0.05 to 0.5
7,"CC(=O)N(C)CCCC[C@@H]1NC(=O)[C@H](Cc2c[nH]c3c(C)cccc23)NC(=O)[C@H]([C@@H](C)O)NC(=O)[C@H](CC(=O)N(C)C)NC(=O)[C@@H](NC(=O)[C@H](CCCCNC(=O)COCCOCCNC(=O)COCCOCCNC(=O)CC[C@H](NC(=O)CCCCCCCCCCCCCCCCC(=O)O)C(=O)O)NC(=O)CCOCCOCC[N+](C)(C)C)C(C)(C)SSC(C)(C)[C@@H](C(=O)N[C@@H](Cc2ccc(OCCN)cc2)C(=O)N[C@@H](Cc2ccc3ccccc3c2)C(=O)NC2(C(=O)N[C@@H](CCCCN(C)C(C)=O)C(=O)N[C@@H](CC(N)=O)C(=O)N[C@@H](Cc3cccnc3)C(=O)N(C)CC(N)=O)CCOCC2)NC1=O [compound 68, cPEG3aCO-K(PEG2PEG2gEC18OH)-Pen(3)-N(N(Me)2)-T-7MeW-K(NMeAc)-Pen(3)-AEF-2Nal-THP-K(NMeAc)-N-3Pya-Sar-CONH2] ({Me3N+(CH2)2O(CH2)2O(CH2)2CO}-K([AEEA-AEEA-γGlu-C18 diacid])[Pen]D(NMe2)T[Trp(7-Me)][Lys(Me)](Ac)[Pen][AEF][2Nal][Thp][Lys(Me)](Ac)N[3Pal][Sar]-NH2; disulfide 2-7)",≥ 0.5
